Source: patent US20250268889A1, “COMPOUNDS AND COMBINATIONS THEREOF FOR TREATING NEUROLOGICAL AND PSYCHIATRIC CONDITIONS” (priority 2022, published 2025)
Like-named read-outs stand apart in the source and are kept apart here.

Key:
[1] = Pharmacokinetics in moderate hepatic impairment vs matched healthy subjects; details: patients having moderate hepatic impairment (Group 2)
From the text: (§1) Data are GMRs and 90% CIs. References used are the matched healthy subjects for renal and hepatic impairment studies, and extensive or ultra-extensive CYP2D6 metabolizers respectively.

[2] = Solubility of the powder in water
[3] = Pharmacokinetics in moderate renal impairment vs matched controls
From the text: as §1

[4] = Pharmacokinetics of the subject combination (steady state); details: for changes in AUC and Cmax with dose (dose proportionality): steady state, co-administered with bupropion; for AUC0-12 relative to that of bupropion / Cmax relative to peak level of bupropion: metabolite; for apparent elimination half-life: metabolites of bupropion
[5] = human, in vivo
[6] = Effect of food on pharmacokinetics of the subject combination; details: subject combination administered with food
[7] = Effect of concomitant 20 mg paroxetine on dextromethorphan exposure (Example 6); details: tablet of Example 4 twice daily, vs without paroxetine
[8] = Co-administration of paroxetine and the subject combination in healthy volunteers (Example 3); details: 29 healthy volunteers; paroxetine co-administered with the subject combination
[9] = Pharmacokinetics in CYP2D6 poor metabolizers vs extensive metabolizers
From the text: Approximately 7% to 10% of Caucasians and 3% to 8% of African Americans lack the capacity to metabolize CYP2D6 substrates and are classified as poor metabolizers.
as §1

[10] = tested on: plasma protein; test: Plasma protein binding; details: metabolite
[11] = tested on: patients with treatment-resistant depression or MDD; details: cited from earlier work
[12] = after administration of the subject combination
[13] = 7 subjects with moderate (GFR 30-60 mL/min) renal impairment vs 6 matched controls
[14] = patients having moderate renal impairment

Compound: CC(NC(C)(C)C)C(=O)c1cccc(Cl)c1.Cl (racemic) [bupropion, (±)-1-(3-chlorophenyl)-2-[(1,1-dimethylethyl)amino]-1-propanone hydrochloride]
- AUC0-12 and Cmax compared with healthy patients [1]: not significantly different
- solubility in water [2]: highly soluble
- increase in AUC0-12 ([3]; human, in vivo): 1.80 fold
- increase in Cmax ([3]; human, in vivo): 1.87 fold
- increase of exposure ([3]; human, in vivo): approximately 2 fold
- reduction of clearance ([3]; human, in vivo): 50%
- median Tmax [4, 12]: about 2 hours

Compound: Fc1ccc([C@@H]2CCNC[C@H]2COc2ccc3c(c2)OCO3)cc1 [paroxetine]
- increase of overall exposure when co-administered with the subject combination [5]: 1.2 fold

Compound: Br.COc1ccc2c(c1)[C@]13CCCC[C@@H]1[C@H](C2)N(C)CC3 [dextromethorphan, morphinan, 3-methoxy-17-methyl-, (9α, 13α, 14α), hydrobromide monohydrate]
- AUC0-12 and Cmax compared with healthy patients [1]: not significantly different
- solubility in water [2]: sparingly soluble
- increase of exposure [3, 13]: approximately 2 fold
- reduction of clearance [3, 13]: 50%
- increase in AUC0-12 [3, 14]: 2.21 fold
- increase in Cmax [3, 14]: 2.10 fold
- change of Cmax with food [6]: unchanged
- decrease of AUC0-12 with food [6]: 14%
- increase of AUC0-12 with concomitant paroxetine [7]: 2.69 fold
- increase of Cmax with concomitant paroxetine [7]: 2.38 fold
- increase of overall exposure by paroxetine [8]: 2.5 fold
- increase of mean elimination half-life compared to dextromethorphan given without bupropion ([4]; following 8 days of administration of the subject combination in extensive metabolizers): approximately 3 fold
- changes in AUC and Cmax with dose (dose proportionality) ([4]; varying doses of bupropion (75 to 150 mg)): less than dose-proportional
- changes in AUC and Cmax with dose (dose proportionality) ([4]; varying doses of dextromethorphan (30 to 60 mg)): greater than dose-proportional
- accumulation ratio at steady state based on AUC0-12 ([4]; subject combination): about 32
- accumulation ratio at steady state based on Cmax ([4]; subject combination): about 20
- increase in AUC0-12 compared to extensive metabolizers ([9]; 3 poor metabolizers): ~3.4 fold
- increase in Cmax compared to extensive metabolizers ([9]; 3 poor metabolizers): ~3 fold
- steady state plasma concentrations compared to non-poor metabolizers ([9]; 12 poor metabolizers treated in efficacy trials): generally higher

Compound: C[C@H]1NC(C)(C)CO[C@]1(O)c1cccc(Cl)c1 [hydroxybupropion]
- AUC0-12 relative to that of bupropion [4, 12]: about 19 times
- Cmax relative to peak level of bupropion [4, 12]: approximately 14 times
- apparent elimination half-life [4]: approximately 35 hours

Compound: C[C@H](NC(C)(C)C)[C@@H](O)c1cccc(Cl)c1 [threohydroxybupropion]
- extent of protein binding compared with bupropion [10]: about half that seen with bupropion
- AUC0-12 relative to that of bupropion [4, 12]: about 7 times
- Cmax relative to peak level of bupropion [4, 12]: about 5 times
- apparent elimination half-life [4]: ~33 h

Compound: CN[C@]1(c2ccccc2Cl)CCCCC1=O [esketamine, Esketamine]
- Incidence of Sedation (MOAA/S score <5) ([11]; 56 mg + oral AD, patients <65 years with TRD, fixed-dose study): 50%
- Incidence of Sedation (MOAA/S score <5) ([11]; 84 mg + oral AD, patients <65 years with TRD, fixed-dose study): 61%
- Incidence of Sedation (MOAA/S score <5) ([11]; 28 to 84 mg + oral AD, patients ≥65 years with TRD, flexible-dose study): 49%
- incidence of sedation (MOAA/S score <5) compared to placebo plus oral antidepressant ([11]; adults with MDD with acute suicidal ideation or behavior): higher incidence of sedation

Compound: CC(NC(C)(C)C)C(O)c1cccc(Cl)c1 (centres unmarked) [erythrohydroxybupropion]
- AUC0-12 relative to that of bupropion [4, 12]: about 1.2 times
- Cmax relative to peak level of bupropion [4, 12]: approximately equal to
- apparent elimination half-life [4]: ~44 h
